Here are results for 18 molecules from patent US20250296939A1, “BENZOTHIOPHENE COMPOUND” (Kyoto Pharmaceutical Industries, Ltd., priority 2022, published 2025).

The IC50 is the midpoint of a concentration-inhibition curve. A higher IC50 goes with a need for much substance. What is called fold induction is the ratio of treated to control signal.

In experiment [1] the target is GST-fused human Keap1 (amino acid residues: 325-642) protein (Homo sapiens (Human), UniProt Q14145). Put plainly: FP assay (in vitro): inhibition of binding between Nrf2 and Keap1 by fluorescence polarization. The note with it: 20 nM GST-fused human Keap1, 10 nM FITC-labeled Nrf2 peptide, 2 hr at room temperature.
Experiment [2] concerns NQO1 activity in Hepa1c1c7 cells. Put plainly: NAD(P)H: quinone oxidoreductase-1 (NQO1) enzyme induction assay (in vitro). It is filed as cell-based, mouse. Particulars: Mus musculus, Hepa-1c1c7, NQO1 activity upon addition of 400 nM of test compound, about 48 hr, ratio from the base without the compound. Summed up: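 Mouse Hepa1c1c7 hepatoma cells were treated with 400 nM compound for about 48 h, then lysed with digitonin/EDTA. NQO1 activity was measured as menadione-mediated MTT reduction with a G6P/G6PDH NADPH-regenerating system, stopped with dicoumarol, and read at A610. Values are the activity ratio versus untreated base wells.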

Sequence of GST-fused human Keap1 (amino acid residues: 325-642) protein (Q14145 325-624 limits assumed): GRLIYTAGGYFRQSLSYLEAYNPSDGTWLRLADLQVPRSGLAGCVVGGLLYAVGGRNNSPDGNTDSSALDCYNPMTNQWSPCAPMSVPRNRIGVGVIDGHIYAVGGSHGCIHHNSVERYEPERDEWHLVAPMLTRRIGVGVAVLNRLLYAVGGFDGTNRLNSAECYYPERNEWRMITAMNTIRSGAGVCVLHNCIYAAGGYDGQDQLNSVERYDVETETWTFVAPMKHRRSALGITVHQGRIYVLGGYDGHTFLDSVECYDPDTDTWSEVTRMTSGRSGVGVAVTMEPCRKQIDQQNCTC

As for `CC[C@@H]1CN(Cc2cc([C@H](CC(=O)O)c3ccc4c(nnn4C)c3C)cc3ccsc23)Cc2nc(N)ccc2O1` [Example 56, (3S)-3-(7-{[(2R)-7-Amino-2-ethyl-2,3-dihydropyrido[2,3-f][1,4]oxazepin-4(5H)-yl]methyl}-1-benzothiophen-5-yl)-3-(1,4-dimethyl-1H-benzotriazol-5-yl)propanoic acid], the 50% inhibitory concentration (IC50) in experiment [1] is at most 10 nM. Further, the fold induction at 0.4 µM in experiment [2] is over 5.

The molecule `CC[C@@H]1CN(Cc2cc([C@H](CC(=O)O)c3cnc4c(nnn4C)c3C)cc3ccsc23)Cc2nc(O)ccc2O1` [Example 24, (3S)-3-(3,7-Dimethyl-3H-[1,2,3]triazolo[4,5-b]pyridin-6-yl)-3-(7-{[(2R)-2-ethyl-7-hydroxy-2,3-dihydropyrido[2,3-f][1,4]oxazepin-4(5H)-yl]methyl}-1-benzothiophen-5-yl)propanoic acid] had an IC50 in experiment [1] of 10 to 30 nM. In addition, the fold induction at 0.4 µM in experiment [2] was in the range of 3 to 5.

`Cc1c([C@@H](CC(=O)O)c2cc(CN3Cc4nc(O)ccc4OC4(CC4)C3)c3sccc3c2)ccc2c1nnn2C` [Example 3, (3S)-3-(1,4-Dimethyl-1H-benzotriazol-5-yl)-3-{7-[(7′-hydroxy-3′H-spiro[cyclopropane-1,2′-pyrido[2,3-f][1,4]oxazepin]-4′(5′H)-yl)methyl]-1-benzothiophen-5-yl}propanoic acid] came in with a half-maximal inhibitory concentration (IC50) in experiment [1] of 10 to 30 nM. In addition, in experiment [2], the fold induction at 0.4 µM is over 5.

As to `CC[C@@H]1CN(Cc2cc([C@H](CC(=O)O)c3cc(C)c4c(nnn4C)c3C)cc3ccsc23)Cc2nc(O)ccc2O1` [Example 17, (3S)-3-(7-{[(2R)-2-Ethyl-7-hydroxy-2,3-dihydropyrido[2,3-f][1,4]oxazepin-4(5H)-yl]methyl}-1-benzothiophen-5-yl)-3-(1,4,7-trimethyl-1H-benzotriazol-5-yl)propanoic acid], the IC50 in experiment [1] lay in the range of 30 to 300 nM. Besides, in experiment [2], the fold induction at 0.4 µM was over 5.

In experiment [1], `Cc1c([C@H](c2cc(CN3Cc4nc(O)ccc4OC4(CC4)C3)c3sccc3c2)C(C)(C)C(=O)O)cnc2c1nnn2C` [Example 50, (3S)-3-(3,7-Dimethyl-3H-[1,2,3]triazolo[4,5-b]pyridin-6-yl)-3-{7-[(7′-hydroxy-3′H-spiro[cyclopropane-1,2′-pyrido[2,3-f][1,4]oxazepin]-4′(5′H)-yl)methyl]-1-benzothiophen-5-yl}-2,2-dimethylpropanoic acid] displayed an IC50 of 10 to 30 nM. Also, in experiment [2], the fold induction at 0.4 µM is over 5.

The molecule `CC[C@H]1Cc2ccc(O)nc2CN(Cc2cc([C@H](CC(=O)O)c3cc(Cl)c4c(nnn4C)c3C)cc3ccsc23)C1` [Example 85, (3S)-3-(7-Chloro-1,4-dimethyl-1H-benzotriazol-5-yl)-3-(7-{[(6S)-6-ethyl-2-hydroxy-5,6,7,9-tetrahydro-8H-pyrido[2,3-c]azepin-8-yl]methyl}-1-benzothiophen-5-yl)propanoic acid] had an IC50 in experiment [1] of at most 10 nM. In addition, in experiment [2], the fold induction at 0.4 µM was over 5.

For `Cc1c([C@@H](CC(=O)O)c2cc(CN3Cc4nc(O)ccc4O[C@H](C4CC4)C3)c3sccc3c2)cnc2c1nnn2C` [Example 9, (3S)-3-(7-{[(2R)-2-Cyclopropyl-7-hydroxy-2,3-dihydropyrido[2,3-f][1,4]oxazepin-4(5H)-yl]methyl}-1-benzothiophen-5-yl)-3-(3,7-dimethyl-3H-[1,2,3]triazolo[4,5-b]pyridin-6-yl)propanoic acid], the IC50 in experiment [1] fell in the range of 30 to 300 nM. In experiment [2], the fold induction at 0.4 µM was over 5.

Consider `CC[C@@H]1CN(Cc2cc([C@H](c3cnc4c(nnn4C)c3C)C(C)(C)C(=O)O)cc3ccsc23)Cc2nc(O)ccc2O1` [Example 49, (3R)-3-(3,7-Dimethyl-3H-[1,2,3]triazolo[4,5-b]pyridin-6-yl)-3-(7-{[(2R)-2-ethyl-7-hydroxy-2,3-dihydropyrido[2,3-f][1,4]oxazepin-4(5H)-yl]methyl}-1-benzothiophen-5-yl)-2,2-dimethylpropanoic acid], for which, in experiment [1], the IC50 lay within 300 to 3000 nM. Also, in experiment [2], the fold induction at 0.4 µM is 3 to 5.

In experiment [1], `CC[C@@H]1CN(Cc2cc(C(CC(=O)O)c3ccc4c(nnn4C)c3C)cc3ccsc23)Cc2nc(F)ccc2O1` (stereo partly drawn) [Example 57, 3-(1,4-Dimethyl-1H-benzotriazol-5-yl)-3-(7-{[(2R)-2-ethyl-7-fluoro-2,3-dihydropyrido[2,3-f][1,4]oxazepin-4(5H)-yl]methyl}-1-benzothiophen-5-yl)propanoic acid] yielded a half-maximal inhibitory concentration (IC50) of 10 to 30 nM. In experiment [2], the fold induction at 0.4 µM is over 5.

`CC[C@H]1Cc2ccc(N)nc2CN(Cc2cc([C@@H](CC(=O)O)c3ccc4c(nnn4C)c3C)cc3ccsc23)C1` [Example 83, (3R)-3-(7-{[(6S)-2-Amino-6-ethyl-5,6,7,9-tetrahydro-8H-pyrido[2,3-c]azepin-8-yl]methyl}-1-benzothiophen-5-yl)-3-(1,4-dimethyl-1H-benzotriazol-5-yl)propanoic acid] displayed an IC50 in experiment [1] of at most 10 nM. Besides, in experiment [2], the fold induction at 0.4 µM is over 5.

Take `CC[C@@H]1CN(Cc2cc([C@@H](CC(=O)O)c3cnc4c(nnn4C)c3C)cc3ccsc23)Cc2nc(N)ccc2O1` [Example 67, (3R)-3-(7-{[(2R)-7-Amino-2-ethyl-2,3-dihydropyrido[2,3-f][1,4]oxazepin-4(5H)-yl]methyl}-1-benzothiophen-5-yl)-3-(3,7-dimethyl-3H-[1,2,3]triazolo[4,5-b]pyridin-6-yl)propanoic acid]: in experiment [1], the IC50 was in the range of 10 to 30 nM. Besides, in experiment [2], the fold induction at 0.4 µM was over 5.

The molecule `CC[C@@H]1CN(Cc2cc([C@H](CC(=O)O)c3ccc4c(nnn4C)c3C)cc3ccsc23)Cc2nc(NC)ccc2O1` [Example 78, (3S)-3-(1,4-Dimethyl-1H-benzotriazol-5-yl)-3-(7-{[(2R)-2-ethyl-7-(methylamino)-2,3-dihydropyrido[2,3-f][1,4]oxazepin-4(5H)-yl]methyl}-1-benzothiophen-5-yl)propanoic acid] yielded an IC50 in experiment [1] of at most 10 nM. Further, the fold induction at 0.4 µM in experiment [2] lay in the range of 3 to 5.

Consider `CC[C@H]1Cc2cccnc2CN(Cc2cc(C(CC(=O)O)c3ccc4c(nnn4C)c3C)cc3ccsc23)C1` (stereo partly drawn) [Example 64, 3-(1,4-Dimethyl-1H-benzotriazol-5-yl)-3-(7-{[(6S)-6-ethyl-5,6,7,9-tetrahydro-8H-pyrido[2,3-c]azepin-8-yl]methyl}-1-benzothiophen-5-yl)propanoic acid], for which, in experiment [1], the half-inhibitory concentration (IC50) fell in the range of 30 to 300 nM. For the same molecule, the fold induction at 0.4 µM in experiment [2] is over 5.

Take `Cc1c(C(CC(=O)O)c2cc(CN3Cc4nc(O)ccc4OC4(CC4)[C@H]3C)c3sccc3c2)ccc2c1nnn2C` (single isomer, unassigned) [Example 58, (3R*)-3-(1,4-Dimethyl-1H-benzotriazol-5-yl)-3-(7-{[(3′R)-7′-hydroxy-3′-methyl-3′H-spiro[cyclopropane-1,2′-pyrido[2,3-f][1,4]oxazepin]-4′ (5′H)-yl]methyl}-1-benzothiophen-5-yl)propanoic acid]: the half-inhibitory concentration (IC50) in experiment [1] was 300 to 3000 nM. Further, in experiment [2], the fold induction at 0.4 µM was 1.5 to 3.

Consider `CC[C@@H]1Cc2cccnc2CN(Cc2cc(C(CC(=O)O)c3ccc4c(nnn4C)c3C)cc3ccsc23)C1` (stereo partly drawn) [Example 63, 3-(1,4-Dimethyl-1H-benzotriazol-5-yl)-3-(7-{[(6R)-6-ethyl-5,6,7,9-tetrahydro-8H-pyrido[2,3-c]azepin-8-yl]methyl}-1-benzothiophen-5-yl)propanoic acid], for which the 50% inhibitory concentration (IC50) in experiment [1] was in the range of 30 to 300 nM. Further, in experiment [2], the fold induction at 0.4 µM is 3 to 5.

For the molecule `CC[C@@H]1CN(Cc2cc([C@H](CC(=O)O)c3cc(C(F)(F)F)c4c(nnn4C)c3C)cc3ccsc23)Cc2nc(O)ccc2O1` [Example 30, (3S)-3-[1,4-Dimethyl-7-(trifluoromethyl)-1H-benzotriazol-5-yl]-3-(7-{[(2R)-2-ethyl-7-hydroxy-2,3-dihydropyrido[2,3-f][1,4]oxazepin-4(5H)-yl]methyl}-1-benzothiophen-5-yl)propanoic acid], the IC50 in experiment [1] is 10 to 30 nM. The fold induction at 0.4 µM in experiment [2] is over 5.

In experiment [1], `CC[C@@H]1CN(Cc2cc(C(CC(=O)O)c3ccc4c(nnn4C)c3C)cc3ccsc23)Cc2nc(F)c(O)cc2O1` (stereo partly drawn) [Example 74, 3-(1,4-Dimethyl-1H-benzotriazol-5-yl)-3-(7-{[(2R)-2-ethyl-7-fluoro-8-hydroxy-2,3-dihydropyrido[2,3-f][1,4]oxazepin-4(5H)-yl]methyl}-1-benzothiophen-5-yl)propanoic acid] came in with an IC50 of 10 to 30 nM. The fold induction at 0.4 µM in experiment [2] was over 5.

`CC[C@@H]1CN(Cc2cc([C@H](CC(=O)O)c3cc(C#N)c4c(nnn4C)c3C)cc3ccsc23)Cc2nc(O)ccc2O1` [Example 34, (3S)-3-(7-Cyano-1,4-dimethyl-1H-benzotriazol-5-yl)-3-(7-{[(2R)-2-ethyl-7-hydroxy-2,3-dihydropyrido[2,3-f][1,4]oxazepin-4(5H)-yl]methyl}-1-benzothiophen-5-yl)propanoic acid] returned an IC50 in experiment [1] of 10 to 30 nM. In experiment [2], the fold induction at 0.4 µM lay in the range of 3 to 5.
